Data taken from patent publication US8688416B2, “Methods and systems for improved pharmaceutical intervention in coagulation control” (priority 2008, dated 2014).
Where “and” joins values, the source holds several entries; their conditions need not be identical. Equal values may be shown once.

Experiments:
INR [1] = experiment: Fit of dose-response equation (4)/(5) for Vitamin K intake to INR of anti-coagulated patients (published data); assay type: in vivo
From the text: More specifically, the reciprocal of INR will be dose-responsive to Vitamin K in the normal manner, as discussed above, so that Logit (1/INR) will be linear in log (K), where K is the effective total intake of Vitamin K in μg/day. Data on the total intake of Vitamin K are very rarely available in the clinic, but it is practicable to investigate departures from the usual amount when occasion arises, such as when a supplement of Vitamin K is prescribed. Therefore log (K) is expressed as the sum of two terms: log (K)=log (K0)+log (K/K0), where K0 is the average daily intake of Vitamin K.
The dose-response curve described here includes the effect of exogenous Vitamin K by considering the parameter a in equation (1) to be the sum of two terms, a=a′+c log (K0), where a′ is another constant and c is a patient-specific parameter, and by adding a term for the effect of departures from K0. Thus, it follows that Log (INR−1)=bw−a−c log (K/K0) (4) […]
The parameters of this dose-response curve for Vitamin K are derived primarily from published data based on use of synthetic Vitamin K tablets. In such published studies, the average daily intake of Vitamin K was measured in the diet of the subjects at 55 μg. […] The dose was increased each Monday before INR was measured; thus, the INR for Tuesday was one day after increase, etc.

INR [2] = tested on: INR
From the text: To simplify, a=y log (PCAo)−x, which expresses the fixed contribution of the patient's own clotting factor system; this will result in equation (1) Log (INR−1)=bw−a (1)
Consequently, the patient-specific parameters are now a and b. […] In the absence of further information, a is assumed to be a constant characteristic of the patient, but as will be shown below, also includes the effects of the intake of Vitamin K on the patient's INR, whose effects can be represented by adding another term (see below). It should be pointed out that Equation (1) is a proposition, not a definition, because it specifies what value of the INR will be observed, given values for a, b and w. Furthermore, it should be appreciated that the value predicted for a particular patient thus depends only on w regardless of when in the treatment sequence it occurred. […] These two parameters relating INR to effective dose w can be seen as the scale factor for the dose a and the steepness of the dose response b.
In the present invention, an empirical approximation is used to predict the time course of the patient's response to a change in a dose. […] In the case of a patient taking the same dose for an extended time, the “effective dose” equals that regular dose after the stabilization time. The “effective dose” only needs to be calculated when there is a change in dosage and during the stabilization period.
The “effective dose” is calculated by convolving the actual dose with a function of time since the dose was taken. This function represents the effect of a single dose on the INR through time. […] It is assumed that the weighting for a dose taken just once is a triangular function with a slope of k from the time the dose is taken to the time of its maximum effect on INR, followed by a tailing off with a slope of −k. The resulting function for a maintained daily dose is an S-shaped growth function, consisting of two quarter-parabolae, depicted in FIG. 5. […] Here, the half-maximal delay is one unit of time at which the dose has half its maximum effect. When the patient stops taking the drug, the decay is reversed.
The “optimum” dose is the dose expected to yield an INR at the mid-point of the therapeutic range. The effective doses were calculated using a half-maximal delay of 6.4, 6.4 and 9.0 days respectively.
The parameter tmax½ used for this convolution is the time to attain the half-maximal effect for a maintained dose, which is also the time to attain the maximum effect of a single dose.

[3] = patients studied, all taking warfarin, w = daily dosage in milligrams, natural log

CC1=C(C/C=C(\C)CCC[C@H](C)CCC[C@H](C)CCCC(C)C)C(=O)c2ccccc2C1=O [Vitamin K1]
half-time to stabilization (INR [1]; effect on INR of effective total daily intake): about 1.6 days

CC(=O)CC(c1ccccc1)c1c(O)c2ccccc2oc1=O (centres unmarked) [warfarin]
time until the INR has stabilized on a constant dose (INR [2]; constant dose): 13 days and 14 days
mean value of a in equation (1), Log (INR-1)=bw-a (INR [2]; [3]): about 2.8
mean value of b in equation (1) (sensitivity, slope of the dose-response curve) (INR [2]; [3]): about 0.54

Vitamin K
average value of patient-specific parameter c in equation (5) (INR [1]; derived from the literature data, K in μg/day, natural log): 0.43
